Results published in article PMC8465676, “A Novel Competitive Binding Screening Assay Reveals Sennoside B as a Potent Natural Product Inhibitor of TNF-α” (Biomedicines, 2021).

Target: T1, TNF-α (Homo sapiens, UniProt P01375)
T1 construct: human recombinant TNF-α (PeproTech), intact homotrimer
Assay: competitive binding by SEC/ultrafiltration with LC-MS; SPD304 displaced and bound sennoside B detected
Details: read-out: % inhibition of SPD304 signal (at 3.5 μM)

T1 sequence (P01375 77-233): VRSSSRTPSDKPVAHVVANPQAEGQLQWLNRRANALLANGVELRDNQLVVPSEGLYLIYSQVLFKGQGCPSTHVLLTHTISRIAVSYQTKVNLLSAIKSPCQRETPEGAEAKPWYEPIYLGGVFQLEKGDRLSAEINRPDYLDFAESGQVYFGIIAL

inhibition at 3.5 µM: 89.4%
Compound: O=C(O)c1cc(O)c2c(c1)[C@@H]([C@H]1c3cc(C(=O)O)cc(O)c3C(=O)c3c(O[C@@H]4O[C@H](CO)[C@@H](O)[C@H](O)[C@H]4O)cccc31)c1cccc(O[C@@H]3O[C@H](CO)[C@@H](O)[C@H](O)[C@H]3O)c1C2=O [compound 23, sennoside B]
